This passage reports Ki and Km/Ki results from patent US10077436B2, “Beta-glucosidase enzymes for increased biomass saccharification” (Edeniq, Inc., priority 2013, dated 2018).

The target of this test is T1, Aspergillus niger beta-glucosidase, wild type, yEdQ745-BG (CAB75696.1, SEQ ID NO:2) (Aspergillus niger, UniProt Q9P8F4).
T1 construct: strain yEdQ745
T1 sequence (Q9P8F4 20-860): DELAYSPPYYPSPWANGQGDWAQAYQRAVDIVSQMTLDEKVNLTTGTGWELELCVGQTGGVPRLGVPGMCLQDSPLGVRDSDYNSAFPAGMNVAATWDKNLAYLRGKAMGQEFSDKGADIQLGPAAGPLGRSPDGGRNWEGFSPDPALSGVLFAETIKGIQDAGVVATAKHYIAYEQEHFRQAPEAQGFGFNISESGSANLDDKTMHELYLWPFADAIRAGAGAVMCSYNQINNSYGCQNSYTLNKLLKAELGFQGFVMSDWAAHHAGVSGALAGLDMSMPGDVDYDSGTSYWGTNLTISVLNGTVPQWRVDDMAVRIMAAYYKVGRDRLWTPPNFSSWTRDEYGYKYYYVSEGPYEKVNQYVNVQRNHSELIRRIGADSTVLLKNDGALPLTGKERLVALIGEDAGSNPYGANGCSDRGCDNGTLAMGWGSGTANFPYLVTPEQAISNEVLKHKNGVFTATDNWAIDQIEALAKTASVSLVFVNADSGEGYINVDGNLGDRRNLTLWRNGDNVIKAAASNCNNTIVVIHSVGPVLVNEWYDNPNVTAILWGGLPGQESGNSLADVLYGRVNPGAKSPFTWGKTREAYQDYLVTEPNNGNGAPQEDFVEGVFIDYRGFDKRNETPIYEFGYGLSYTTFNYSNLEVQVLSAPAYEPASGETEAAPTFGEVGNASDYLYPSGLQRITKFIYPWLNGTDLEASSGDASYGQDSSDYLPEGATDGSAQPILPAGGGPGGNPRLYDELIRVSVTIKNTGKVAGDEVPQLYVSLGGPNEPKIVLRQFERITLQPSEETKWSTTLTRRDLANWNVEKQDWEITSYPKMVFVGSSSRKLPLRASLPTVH
Kind of test: BG kinetics, cellobiose hydrolysis assay (HPLC) with glucose as competitive inhibitor, yEdQ745-BG. The test is classed as biochemical. From the text:
Accordingly, in some embodiments, the unmodified form of the beta-glucosidase is a wild-type or a naturally occurring beta-glucosidase, such as, for example, a fungal beta-glucosidase. The full nucleic acid and amino acid sequence for numerous fungal beta-glucosidases are available. The amino acid sequence of A. niger beta-glucosidase is provided as SEQ ID NO:2. Thus, in some embodiments, the unmodified beta-glucosidase is from an Aspergillus species. In some embodiments, the unmodified beta-glucosidase is from a Trichoderma species.
The beta-glucosidase (BG) gene from Aspergillus niger (Accession #CAB75696.1) was integrated into the TR3 yeast background at the T4U3 genomic site.
The BG-expressing strains were subsequently used in corn mash and corn stover simultaneous saccharification and fermentation (SSF) studies using flask scale and pilot plant fermentations. A 12-gallon corn stover fermentation was performed at 40° C. in which the beta-glucosidase secreting yeast strain was co-inoculated with three other engineered yeast strains individually expressing endoglucanase II, CBH1, and CBHII. Surviving TR3 Saccharomyces cerevisiae yeast strains individually expressing BG, EGII, CBH1 or CBH2 were recovered by plating onto solid medium. A clonal population of BG-secreting yeast was isolated and the BG gene integration confirmed. […]

The Ki is a measure of affinity in units of concentration, obtained from inhibition or displacement. `OC[C@H]1OC(O)[C@H](O)[C@@H](O)[C@@H]1O` (some centres unmarked) [glucose] yielded an inhibitory constant (Ki) of 1560 ± 290 µM. Besides, the Km/Ki (inhibitor influence, Km for cellobiose / Ki for glucose, pH 4.8, 50° C.) is on record as 0.93.
